Measurements reported in US20110223132A1, “ISOTHIAZOLOQUINOLONES AND RELATED COMPOUNDS AS ANTI-INFECTIVE AGENTS” (priority 2003, published 2011).
Values after ≈ are worked out from the molar mass of the structure shown.

Tests used:
[1] = system: E. coli ATCC 25922; test: Minimum inhibitory concentration (MIC) assay, broth microdilution; format: cell-based; conditions: Escherichia coli, ATCC25922; E. coli ATCC 25922, Mueller-Hinton II broth, 37° C., 18 to 24 hours
Method: (§1) The antimicrobial activity of the compounds of the invention may be evaluated by a number of methods, including the following visual minimum inhibitory concentration (MIC) assay. This assay determines the minimum concentration of compound required to inhibit growth of a bacterial strain. Whole-cell antibacterial activity is determined by broth microdilution using conditions recommended by the NCCLS (see National Committee for Clinical Laboratory Standards. 2001. Performance standards for antimicrobial susceptibility testing: 11th informational supplement. Vol. 21, no. 1, M100-S11. National Committee for Clinical Laboratory Standards, Wayne, Pa.). Test compounds are dissolved in DMSO and diluted 1:50 in Mueller-Hinton II broth (Becton-Dickinson) to produce a 256 μg/ml stock solution. In a 96-well microtiter plate, the compound solution is serially two-fold diluted in Mueller-Hinton II broth. After the compounds are diluted, a […] aliquot of the test organism (˜1×10^6 cfu/mL) is added to each well of the microtiter plate. The final test concentrations range from 0.125-128 μg/mL Inoculated plates are incubated in ambient air at 37° C. for 18 to 24 hours. The organisms selected for testing included laboratory strains S. aureus ATCC 29213 and E. coli ATCC 25922 (strains purchased from American Type Culture Collection, Manassas, Va.). The minimum inhibitory concentration (MIC) was determined as the lowest concentration of compound that inhibited visible growth of the test organism.

[2] = system: S. aureus ATCC 29213; test: as above; format: cell-based; conditions: Staphylococcus aureus, ATCC29213; S. aureus ATCC 29213, Mueller-Hinton II broth, 37° C., 18 to 24 hours
Method: as §1

[3] = Compound cytotoxicity, cell viability staining with Alamar Blue; format: cell-based; conditions: Chinese hamster, CHO cells (Chinese hamster ovary), positive control
Method: (§2) Optimal cell density is first determined by plating cells in a 96-well plate standard sterile tissue culture plates in 100 μl media, 10% FBS at six cell densities from 500 cells/well to 15,000 cells/well. A cell free well containing only media is used as a control. Cells are incubated at 37° C. in a 5% CO2 incubator for 24 hours. 10% culture volume (10 ul) of Alamar Blue (Biosource, DAL1100, 100 mL) is then added. Cells are incubated at 37° C. in a 5% CO2 incubator and read in a Victor V plate reader, 544 nm excitation, 590 nm emission, at 3, 4, and 24 hours after the addition of Alamar Blue. The cell number vs. change in fluorescence is plotted to determine linearity of signal vs. cell number. The optimal density varies between 500-15,000 cells/well depending on the specific cell type. The optimal density is selected based on the highest number of cells that is still in the linear response range. Cells are plated at optimal cell density in a standard sterile tissue culture 96 well plate, and incubated at 37° C., O/N in a 5% CO2 incubator. 12 to 48 hours post-plating media is removed. […] Plates are incubated 4 hours at 37° C. in a 5% CO2 incubator and read in a Victor V plate reader, 544 nm excitation, 590 nm emission. […] The change in fluorescence vs. concentration of test compound is plotted to determine the cytotoxicity of the compound.

[4] = as above; format: cell-based; conditions: human, Hep 2 cells (laryngeal carcinoma), positive control
Method: as §2

Row | SMILES | MIC [1] [µg/mL] | MIC [2] [µg/mL] | other results
1 | O=c1[nH]sc2c1c(=O)c1cc(F)c(C3=CCNCC3)cc1n2C1CC1 |  |  | melting point: > 241 °C (dec.)
2 | NC1CCc2cc(-c3cc4c(cc3F)c(=O)c3c(=O)[nH]sc3n4C3CC3)ccc2C1 (racemic) [Compound 31, (Rac)-7-(6-Amino-5,6,7,8-Tetrahydronaphthalen-2-Yl)-9-Cyclopropyl-6-Fluoro-9H-Isothiazolo[5,4-B]Quinoline-3,4-Dione] |  |  | melting point: > 257 °C (dec.)
3 | O=c1[nH]sc2c1c(=O)c1cc(F)c(-c3ccccc3)cc1n2C1CC1 [Compound 32, 9-Cyclopropyl-6-fluoro-7-phenyl-9H-isothiazolo[5,4-b]quinoline-3,4-dione] | 0.06 (≈ 0.17 µM) | 0.007 (≈ 0.0199 µM) | 
4 | CC(C)(C)c1ccc(C(O)CCCN2CCC(C(O)(c3ccccc3)c3ccccc3)CC2)cc1 (stereo not drawn) [Terfenadine] |  |  | CC50 [3]: 4.3 to 6.5 µM; CC50 [4]: 3 to 5 µM

The next lines start with results.

Row | MIC [1] [µg/mL] | MIC [2] [µg/mL] | SMILES | other results
5 | 0.003 (≈ 0.00849 µM) | 0.007 (≈ 0.0198 µM) | O=c1[nH]sc2c1c(=O)c1cc(F)c(-c3cccnc3)cc1n2C1CC1 [Compound 33, 9-Cyclopropyl-6-fluoro-7-pyridin-3-yl-9H-isothiazolo [5,4-b]quinoline-3,4-dione] | 
6 | 1 (≈ 2.52 µM) | 0.125 (≈ 0.315 µM) | O=C(O)c1cccc(-c2cc3c(cc2F)c(=O)c2c(=O)[nH]sc2n3C2CC2)c1 [Compound 34, 3-(9-Cyclopropyl-6-fluoro-3,4-dioxo-2,3,4,9-tetrahydro-isothiazolo[5,4-b]quinolin-7-yl)-benzoic acid] | 
7 | 1 (≈ 2.52 µM) | 0.03 (≈ 0.0757 µM) | CCOc1cccc(-c2cc3c(cc2F)c(=O)c2c(=O)[nH]sc2n3C2CC2)c1 [Compound 35, 9-Cyclopropyl-7-(3-ethoxy-phenyl)-6-fluoro-9H-isothiazolo[5,4-b]quinoline-3,4-dione] | 
